PubChem BioAssay AID2060607 (Molecular Pharmacology Branch, DTP, NCI, 2025)
Values joined by “and” are separate entries in the source; they are usually repeats but may differ in a detail not shown here. Equal values may be shown once.

System: 876862-298-R-J1-PDC complex spheroids, viability % test/control
Test: Anticancer human tumor 876862-298-R-J1-PDC patient-derived endometrial carcinoma cell line growth inhibition [CLK]
Settings: for viability, T/C: stronger effect = lower value
Procedure, shortened: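 Patient-derived tumor cells grown as complex spheroids with HUVEC endothelial cells and mesenchymal stem cells, treated with drug combinations. Concentrations descend in half-log steps from near clinical Cmax, or from 10 microM if Cmax unknown.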

[1] = curve of first compound, second compound 0.0316 µM
[2] = curve of first compound, second compound 0.1 µM
[3] = curve of first compound, second compound 0.316 µM
[4] = curve of first compound, second compound 1 µM
[5] = curve of first compound, second compound 3.16 µM
[6] = curve of first compound, second compound 10 µM
[7] = second compound 0.0316 µM, first compound 0.0316 µM
[8] = second compound 0.0316 µM, first compound 0.1 µM
[9] = second compound 0.0316 µM, first compound 0.316 µM
[10] = second compound 0.0316 µM, first compound 1 µM
[11] = second compound 0.0316 µM, first compound 3.16 µM
[12] = second compound 0.0316 µM, first compound 10 µM
[13] = second compound 0.1 µM, first compound 0.0316 µM
[14] = second compound 0.1 µM, first compound 0.1 µM
[15] = second compound 0.1 µM, first compound 0.316 µM
[16] = second compound 0.1 µM, first compound 1 µM
[17] = second compound 0.1 µM, first compound 3.16 µM
[18] = second compound 0.1 µM, first compound 10 µM
[19] = second compound 0.316 µM, first compound 0.0316 µM
[20] = second compound 0.316 µM, first compound 0.1 µM
[21] = second compound 0.316 µM, first compound 0.316 µM
[22] = second compound 0.316 µM, first compound 1 µM
[23] = second compound 0.316 µM, first compound 3.16 µM
[24] = second compound 0.316 µM, first compound 10 µM
[25] = second compound 1 µM, first compound 0.0316 µM
[26] = second compound 1 µM, first compound 0.1 µM
[27] = second compound 1 µM, first compound 0.316 µM
[28] = second compound 1 µM, first compound 1 µM
[29] = second compound 1 µM, first compound 3.16 µM
[30] = second compound 1 µM, first compound 10 µM
[31] = second compound 3.16 µM, first compound 0.0316 µM
[32] = second compound 3.16 µM, first compound 0.1 µM
[33] = second compound 3.16 µM, first compound 0.316 µM
[34] = second compound 3.16 µM, first compound 1 µM
[35] = second compound 3.16 µM, first compound 3.16 µM
[36] = second compound 3.16 µM, first compound 10 µM
[37] = second compound 10 µM, first compound 0.0316 µM
[38] = second compound 10 µM, first compound 0.1 µM
[39] = second compound 10 µM, first compound 0.316 µM
[40] = second compound 10 µM, first compound 1 µM
[41] = second compound 10 µM, first compound 3.16 µM
[42] = second compound 10 µM, first compound 10 µM
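Also: spheroids exposed to drugs for 7 days before readout.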
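For viability, T/C in this document: 100% = DMSO vehicle control wells.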

C#Cc1c(F)ccc2cc(O)cc(-c3ncc4c(N5CC6CCC(C5)N6)nc(OCC56CCCN5CC(F)C6)nc4c3F)c12 (centres undefined) + CNC(=O)c1ccc(Nc2nc(OC3CCCC3)c3c(-c4ccc5nc(C)oc5c4)c[nH]c3n2)c(OC)c1
IC50 [1]: > 10000 nM | IC50 [2]: < 31.6 nM | IC50 [3]: < 31.6 nM | IC50 [4]: < 31.6 nM | IC50 [5]: < 31.6 nM | IC50 [6]: < 31.6 nM | viability, T/C [7]: 65.6% | viability, T/C [8]: 88.8% | viability, T/C [9]: 71.9% | viability, T/C [10]: 75.3% | viability, T/C [11]: 76.3% | viability, T/C [12]: 71.4% | viability, T/C [13]: 46.5% | viability, T/C [14]: 52.8% | viability, T/C [15]: 42.7% | viability, T/C [16]: 46.6% | viability, T/C [17]: 49.9% | viability, T/C [18]: 38.2% | viability, T/C [19]: 38% | viability, T/C [20]: 40.4% | viability, T/C [21]: 38.9% | viability, T/C [22]: 41.7% | viability, T/C [23]: 39.6% | viability, T/C [24]: 34.4% | viability, T/C [25]: 33.5% | viability, T/C [26]: 34.9% | viability, T/C [27]: 27.7% | viability, T/C [28]: 30.5% | viability, T/C [29]: 32.9% | viability, T/C [30]: 26.2% | viability, T/C [31]: 23.6% | viability, T/C [32]: 22.1% | viability, T/C [33]: 22.8% | viability, T/C [34]: 21.7% | viability, T/C [35]: 24.9% | viability, T/C [36]: 20.2% | viability, T/C [37]: 20.1% | viability, T/C [38]: 20.4% | viability, T/C [39]: 21.4% | viability, T/C [40]: 21.6% | viability, T/C [41]: 20.3% | viability, T/C [42]: 19.4%

CCCS(=O)(=O)Nc1ccc(F)c(C(=O)c2c[nH]c3ncc(-c4ccc(Cl)cc4)cc23)c1F + CN1CCN(c2cc(C(=O)Nc3cc4cc(-c5cnn(C)c5)ccc4cn3)ccn2)CC1
IC50 [1]: 6760 nM | IC50 [2]: 974 nM | IC50 [3]: < 31.6 nM | IC50 [4]: < 31.6 nM | IC50 [5]: < 31.6 nM | IC50 [6]: < 31.6 nM | viability, T/C [7]: 103% | viability, T/C [8]: 93.4% | viability, T/C [9]: 89.2% | viability, T/C [10]: 101% | viability, T/C [11]: 77.1% | viability, T/C [12]: 36.1% | viability, T/C [13]: 63.4% | viability, T/C [14]: 51.6% | viability, T/C [15]: 53.1% | viability, T/C [16]: 50.7% | viability, T/C [17]: 42.2% | viability, T/C [18]: 22.5% | viability, T/C [19]: 4.72% | viability, T/C [20]: 3.82% | viability, T/C [21]: 5.6% | viability, T/C [22]: 5.09% | viability, T/C [23]: 5.93% | viability, T/C [24]: 3.83% | viability, T/C [25]: 0.82% | viability, T/C [26]: 1.88% | viability, T/C [27]: 1.54% | viability, T/C [28]: 2.17% | viability, T/C [29]: 3.28% | viability, T/C [30]: 1.25% | viability, T/C [31]: 1.32% | viability, T/C [32]: 2.22% | viability, T/C [33]: 9.57% | viability, T/C [34]: 1.58% | viability, T/C [35]: 2.88% | viability, T/C [36]: 2.88% | viability, T/C [37]: 1.06% | viability, T/C [38]: 1.12% | viability, T/C [39]: 1.23% | viability, T/C [40]: 10.9% | viability, T/C [41]: 7.9% | viability, T/C [42]: 2.22%

Cn1ncnc1[C@H]1c2n[nH]c(=O)c3cc(F)cc(c23)N[C@@H]1c1ccc(F)cc1
viability, T/C (compound 0.000316 µM): 110% and 102% | viability, T/C (compound 0.001 µM): 91.2% and 96.9% | viability, T/C (compound 0.00316 µM): 106% and 96.8% | viability, T/C (compound 0.01 µM): 103% and 105% | viability, T/C (compound 0.0316 µM): 107% and 114% | viability, T/C (compound 0.1 µM): 107% and 101% | IC50 (curve of compound): > 100 nM

O=c1[nH]cc(F)c(=O)[nH]1
viability, T/C (compound 0.0316 µM): 99.1% and 101% | viability, T/C (compound 0.1 µM): 93.2% and 107% | viability, T/C (compound 0.316 µM): 100% and 99.6% | viability, T/C (compound 1 µM): 104% and 101% | viability, T/C (compound 3.16 µM): 70% and 56.4% | viability, T/C (compound 10 µM): 54.1% and 46.7% | IC50 (curve of compound): > 10000 nM and 6770 nM

CC(CO)NC(=O)c1cc(-c2ccc(Cl)cc2)nn(-c2cnn(C)c2)c1=O (centres undefined) + CNC(=O)c1ccc(Nc2nc(OC3CCCC3)c3c(-c4ccc5nc(C)oc5c4)c[nH]c3n2)c(OC)c1
IC50 [1]: > 10000 nM | IC50 [2]: < 31.6 nM | IC50 [3]: < 31.6 nM | IC50 [4]: < 31.6 nM | IC50 [5]: < 31.6 nM | IC50 [6]: < 31.6 nM | viability, T/C [7]: 68.7% | viability, T/C [8]: 81% | viability, T/C [9]: 66.9% | viability, T/C [10]: 67.7% | viability, T/C [11]: 62.9% | viability, T/C [12]: 55.7% | viability, T/C [13]: 41% | viability, T/C [14]: 53% | viability, T/C [15]: 44.9% | viability, T/C [16]: 48.5% | viability, T/C [17]: 46.1% | viability, T/C [18]: 42.7% | viability, T/C [19]: 38.7% | viability, T/C [20]: 43.8% | viability, T/C [21]: 39.7% | viability, T/C [22]: 37.9% | viability, T/C [23]: 42.7% | viability, T/C [24]: 42.1% | viability, T/C [25]: 33.8% | viability, T/C [26]: 32.6% | viability, T/C [27]: 38.9% | viability, T/C [28]: 33.3% | viability, T/C [29]: 30% | viability, T/C [30]: 31.3% | viability, T/C [31]: 24% | viability, T/C [32]: 25.1% | viability, T/C [33]: 21.7% | viability, T/C [34]: 25.5% | viability, T/C [35]: 27.2% | viability, T/C [36]: 22.4% | viability, T/C [37]: 23.9% | viability, T/C [38]: 21.2% | viability, T/C [39]: 20.5% | viability, T/C [40]: 23.8% | viability, T/C [41]: 23.1% | viability, T/C [42]: 20.9%

COC1C=CCC(C)C(C)S(=O)(=O)NC(=O)c2ccc3c(c2)N(CC2CCC21)CC1(CCCc2cc(Cl)ccc21)CO3 (centres undefined)
viability, T/C (compound 0.0316 µM): 112% and 102% | viability, T/C (compound 0.1 µM): 97.2% and 97.7% | viability, T/C (compound 0.316 µM): 102% and 97.5% | viability, T/C (compound 1 µM): 107% and 99.3% | viability, T/C (compound 3.16 µM): 109% and 99.7% | viability, T/C (compound 10 µM): 38.3% and 29.6% | IC50 (curve of compound): 8200 nM and 7140 nM

CN1CCN(c2cc(C(=O)Nc3cc4cc(-c5cnn(C)c5)ccc4cn3)ccn2)CC1
viability, T/C (compound 0.0316 µM): 95.1% [middle of 12 runs] | viability, T/C (compound 0.1 µM): 49.8% [middle of 12 runs] | viability, T/C (compound 0.316 µM): 3.46% [middle of 12 runs] | viability, T/C (compound 1 µM): 1.68% [middle of 12 runs] | viability, T/C (compound 3.16 µM): 1.49% [middle of 12 runs] | viability, T/C (compound 10 µM): 1.35% [middle of 12 runs] | IC50 (compound alone, run of 09/18/2023): 99.4 nM [middle of 12 runs]
